Data reported in US8269009B2, “Methods and compositions for treating liquid tumors” (Elan Pharmaceuticals, Inc., priority 2007, dated 2012).

Legend:
[1] = Maximum tolerated dose of topotecan in the MOLT-4 model (Piedmont Research Center); conditions: SCID, mouse, in vivo; MOLT-4 cell line model
Method: The dose level of 12 mg/kg topotecan was determined as maximum tolerated dose in the MOLT-4 cell line by Piedmont Research Center. Since maximal biologic effect can occur at a dose much lower than the MTD, we had included ½ the maximum tolerated (½MTD=6 mg/kg) (see Marx, G M et al., Journal of Clin One 2002; 20(6): 1446-1448).

[2] = test system: neovascularization of the cornea; test: Mouse corneal micropocket angiogenesis assay (VEGF pellet); type: in vivo, C57BL/6 mice
Method: Fifty-five Charles River (Wilmington, N.C.) female C57BL/6 mice were available for the study. […] On Day 1 (Oct. 9, 2007) the Hydron pellets were implanted into corneal pocket cut in one eye of mice; pellets containing 200 ng/animal VEGF were implanted in Groups 2-6. Mice were anesthetized with 90 mg/kg pentobarbital, IP, immediately prior to implantation surgery; pellet implantation was performed according to Piedmont SOP which the test facility described as an adaptation of the method described by Kenyon et al (B M Kenyon, E E Voest, C C Chen, E Flynn, J Folkman, R J D'Amato, 1996, A model of angiogenesis in the mouse cornea, Investigative Opthalmology & Visual Science, Vol 37 No 8, 1625-1632). […]
Body weights were taken every day throughout the study. […] The vessel length of the longest blood vessel to have grown upward from the limbus was measured (VL) as was the circumference of vessel growth or clock hour (CH). The area of neovascularization was calculated using the formula: Area (mm^2)=πVL×CH×0.2. In addition to reporting the vessel length, clock hour, and calculated area of neovascularization, the percent neovascularization compared to the VEGF-treated negative control (Group 2) was reported. statistical significance by Kruskal-Wallis-Dunn with comparison to Group 2 and mean body weight nadir (the lowest group mean body weight, as a percent change from Day 1. […]

Molecule	MTD [1] [mg/kg]	Percent neovascularization ([2]; 10 mg/kg IP, qd x 6 from Day 2) [%]	Changes in body weight vs untreated group ([2]; mouse, in vivo)
CC[C@@]1(O)C(=O)OCc2c1cc1n(c2=O)Cc2cc3c(CN(C)C)c(O)ccc3nc2-1 [topotecan]	12		
bevacizumab: bevacizumab (Avastin, Genentech), an anti-VEGF monoclonal antibody		0	no significant changes
